Results taken from patent publication US10514377B2, “Method of diagnosing and therapeutically treating a patient for a traumatic brain injury” (priority 2010, dated 2019).

Test system: rats subjected to impact acceleration injury
Assay: Impact acceleration injury (traumatic brain injury) in rats, GFAP immuno-fluorescence of cortex 24 hours after injury
Format: in vivo
Details: rat
Excerpt: FIG. 3 through 5 represent respectively, representative photomicrographs of three groups of ten rats which have been subjected to the development of traumatic brain injury through impact by a weight under experimental conditions described hereinafter.
Low and high magnification micrographs of glial fibrillary acidic proteins (GFAP) immuno-fluorescence using a laser-scanning confocal microscope produced FIGS. 3 through 5. The GFAP antibody labels the intermediate filaments of most astrocytes in the brain. These photomicrographs, which were taken 24 hours after the animals were subjected to impact acceleration injury, show areas of cortex slightly lateral to the midline. The pial surface is at the top of the images and the midline is to the left of all images. In the sham animals shown in FIG. 3, a normal distribution of GFAP labeled astrocytes is seen, including their endfeet which surround the neurovasculature. […] There is also a patchy loss of GFAP-labeled astrocytes throughout the cortex and the vasculature shown by the arrow heads (as contrasted with the full arrows) appears damaged. It should also be noted that many of the remaining astrocytes appear to be hypertrophied. The loss of all GFAP-immunoreactivity and appearance of astrocyte hypertrophy are indicative of a neuroinflammatory response to injury.
In order to provide additional information regarding the invention, experiments were performed on animals who were subjected to the impact acceleration injury described hereinbefore, with the animals subsequently being sacrificed and the brains examined 24 hours after the injury. Tests were performed with body specimens which were urinary excretion and also with blood, either blood plasma or blood serum. In each group of ten animals, all had their urine tested and six had blood tested. With the sham animals, the mean urinary excretion values of marinobufagenin were 423±130 (SE)pgMBG/mg creatinine. With the impact acceleration injury rats, the mean urinary excretion values of marinobufagenin were […]. […] These tests confirm the evaluation of marinobufagenin in both urine and blood when an impact acceleration injury is present.

[1] = 120 μg bolus about 90 minutes after injury, 24 hours after injury, FIG. 5

## C[C@]12CC[C@H](O)C[C@H]1CC[C@@H]1[C@@H]2CC[C@]2(C)[C@@H](c3ccc(=O)oc3)C[C@H]3O[C@]132 [resibufogenin]
[1]
  GFAP immunoreactivity: reduce the decrease in GFAP immunoreactivity
  appearance of GFAP labeled astrocytes (normal vs hypertrophied): a greater proportion of GFAP labeled astrocytes have a normal, rather than a hypertrophied appearance
  glial scar in cortex: no observed glial scar
120 μg bolus of resibufogenin about 90 minutes after injury, cortex examined 24 hours after injury, FIG. 5 vs FIG. 4
  alterations after impact acceleration injury (glial scar, patchy loss of GFAP-labeled astrocytes, damaged vasculature, astrocyte hypertrophy): most of these alterations are ameliorated
